Values quoted from earlier work, collected in publication PMC11173647, “Anti-Inflammatory Activity of Pyrazolo[1,5-a]quinazolines” (Molecules, 2024).

Legend:
Set-up in all cases: method as in PMID 32696514
[1] = molecular target: 5-lipoxygenase (5-LOX); conditions: cited from earlier work
[2] = tested on: carrageenan-induced paw edema; conditions: carrageenan-induced paw edema model, 10 mg/kg; cited from earlier work
[3] = tested on: cyclooxygenase 2 (COX-2); conditions: cited from earlier work
[4] = tested on: gastric ulcerogenic effects; conditions: in vivo; cited from earlier work

SMILES: COc1cc(/C=c2/c(=O)[nH]n3c(=O)c4ccccc4nc23)cc(OC)c1OC [A]
- IC50 [1]: 2300 nM
- reduction of edema [2]: 39%
- selectivity toward COX-2 versus COX-1 ([3]; COX-2 versus COX-1): about 14 fold
- IC50 [3]: 47 nM
- gastric ulcerogenic effects [4]: did not exhibit gastric ulcerogenic effects
